In brackets after ≈: the same amount, converted by molar mass. Entries after “also recorded” stand apart in the source; their conditions may differ. Read-outs that look alike come from different tables or passages of the source.
Assays:
P. aeruginosa LESB58-lux = assay: In vitro synergy, checkerboard assay (luminescence readout); assay type: cell-based, Pseudomonas aeruginosa; settings: TCM; for FICI, drug combined with CAZ / FICI, drug combined with CZA: FICI <= 0.5 indicates synergy
Method: (§1) For susceptibility testing under standard conditions, bacteria were cultured in Muller Hinton Broth MHB (Fort Richards Laboratories). Host mimicking conditions in vitro were simulated using tissue culture medium (TCM) consisting of Dulbecco’s modified Eagle medium (DMEM; Gibco #11965) supplemented with FBS (Moregate Biotech) (5% v/v) and glucose (1% w/v). Further susceptibility testing was also conducted in MHB supplemented with FBS (5% v/v) and DMEM supplemented with glucose (1% w/v) and MHB (10% v/v).
(§2) The P. aeruginosa LESB58.lux strain was used for in vitro synergy experiments with azithromycin in MHB and all antibiotic combinations in TCM to determine bacterial growth (as visual inspection and absorbance measurements were unreliable). Synergy was determined using the checkerboard method ([Berenbaum, 1978]; [Pletzer and Hancock, 2018]) in at least triplicate. Each antibiotic was two-fold serially diluted in sterile water before transferring to a 96-well plate containing 1 × 10^6 CFU mL^-1 bacteria in MHB or TCM. Plates were incubated at 37°C for 22-24 hours. The MIC alone or in combination was recorded as the lowest antibiotic concentration with no visible growth. For experiments using the LESB58.lux strain no visible growth was defined as an at least 95% reduction compared to the no antibiotic growth control in luminescence detected using a ClarioStar plate reader. The fractional inhibitory concentration index (FICI) was calculated as [(MICA in combination)/MICA] + [(MICB in combination)/MICB]. FICI values of 0.5 or below indicated synergy, while values above 0.5 up to and including 1 were taken to indicate additivity. FICI values above 1 indicate indifference or antagonism ([Odds, 2003]).

[1] = Method: Mice used in this study were female Swiss Webster aged approximately 6-7 weeks and sourced from the University of Otago Biomedical Research Facility. […] Briefly, the fur on the back of each mouse was removed by shaving and chemical depilation. Antibiotics were tested for skin toxicity by injecting 50 μL of antibiotic suspension subcutaneously into naïve mice, and subsequent inspection of the skin for inflammation on the next day. P. aeruginosa LESB58 was grown to mid-log phase in dYT broth, washed twice in sterile PBS (Gibco, pH 7.4), and resuspended in PBS to ~1 x 10^8 CFU per 50 μL inoculum. The bacterial suspension (50 μL) was injected subcutaneously into the right side of the dorsum, followed one hour later by 50 μL of antibiotic treatment injected directly into the infected area. […] Combination treatments were administered as a single 50 μL injection containing both antibiotics. The concentration of each antibiotic in the combination was the same as when it was used alone. Progression of the infection was monitored daily, and abscess dimensions were measured on day three using a calliper. On day three, abscess tissue and pus were excised, homogenized in sterile PBS using SPEX SamplePrep 1600 MiniG for five minutes and bacterial CFU counts determined by serial dilution.
P. aeruginosa LESB58 [2] = assay: microbe, parasite or virus in culture; assay type: cell-based, Pseudomonas aeruginosa; settings: for MIC: Pseudomonas aeruginosa; for Fold change TCM vs MHB (MIC): MIC in TCM vs MIC in MHB
Method: (§3) For susceptibility testing under standard conditions, bacteria were cultured in Muller Hinton Broth MHB (Fort Richards Laboratories). […] Further susceptibility testing was also conducted in MHB supplemented with FBS (5% v/v) and DMEM supplemented with glucose (1% w/v) and MHB (10% v/v).
The minimum inhibitory concentration (MIC) of each antibiotic was determined using the broth microdilution method in 96-well plates. […] Briefly, antibiotics were two-fold serially diluted in MHB or TCM prior to adding 1 × 10^6 CFU mL^-1 bacteria. […] The MIC was recorded as the lowest antibiotic concentration with no visible growth and the median value of at least three biological replicates reported.

P. aeruginosa LESB58 [3] = assay: In vitro synergy, checkerboard assay; assay type: cell-based, Pseudomonas aeruginosa; settings: MHB; for FICI, drug combined with CAZ / FICI, drug combined with CZA: FICI <= 0.5 indicates synergy
Method: as §1, §2

P. aeruginosa PAO1 = assay: Minimum inhibitory concentration, broth microdilution; assay type: cell-based, Pseudomonas aeruginosa; settings: for MIC: Pseudomonas aeruginosa, PAO1; for Fold change TCM vs MHB (MIC): MIC in TCM vs MIC in MHB
Method: as §3
The minimum inhibitory concentration (MIC) of each antibiotic was determined using the broth microdilution method in 96-well plates. […] Briefly, antibiotics were two-fold serially diluted in MHB or TCM prior to adding 1 × 10^6 CFU mL^-1 bacteria. Plates were incubated at 37°C for 22-24 hours. The MIC was recorded as the lowest antibiotic concentration with no visible growth and the median value of at least three biological replicates reported.

P. aeruginosa LESB58 [4] = assay: Murine high density subcutaneous skin abscess model; assay type: in vivo, Pseudomonas aeruginosa; settings: Colistin
Method: Mice used in this study were female Swiss Webster aged approximately 6-7 weeks and sourced from the University of Otago Biomedical Research Facility. […] The subcutaneous abscess infection model was performed as previously described ([Pletzer et al., 2017]) with a higher inoculum. Briefly, the fur on the back of each mouse was removed by shaving and chemical depilation. Antibiotics were tested for skin toxicity by injecting 50 μL of antibiotic suspension subcutaneously into naïve mice, and subsequent inspection of the skin for inflammation on the next day. P. aeruginosa LESB58 was grown to mid-log phase in dYT broth, washed twice in sterile PBS (Gibco, pH 7.4), and resuspended in PBS to ~1 x 10^8 CFU per 50 μL inoculum. The bacterial suspension (50 μL) was injected subcutaneously into the right side of the dorsum, followed one hour later by 50 μL of antibiotic treatment injected directly into the infected area. […] Combination treatments were administered as a single 50 μL injection containing both antibiotics. The concentration of each antibiotic in the combination was the same as when it was used alone. Progression of the infection was monitored daily, and abscess dimensions were measured on day three using a calliper. On day three, abscess tissue and pus were excised, homogenized in sterile PBS using SPEX SamplePrep 1600 MiniG for five minutes and bacterial CFU counts determined by serial dilution. In this model, synergy was defined as being a significant difference between the combination treated group and the amalgamated group of single drug treated animals ([Fantin and Carbon, 1992]; [Pletzer et al., 2018]).
Statistical analysis was performed using GraphPad Prism 9.5.1. Bacterial CFU and abscess size data from in vivo experiments was analysed by Kruskal-Wallace test with Dunn’s correction for multiple comparisons. The data was considered significant when p-values were below 0.05 or 0.01 as indicated.

[5] = 50 μL injected subcutaneously, skin inspected next day
[6] = LESB58, read-out: MIC in MHB, MHB, 20-24 h
[7] = LESB58, read-out: MIC in TCM, TCM (DMEM + 1% glucose + 5% FBS), 20-24 h
[8] = tigecycline and tobramycin groups, compared to the vehicle control, day 3

Row | Structure (SMILES) | Highest tolerated dose tested [1, 5] | MIC (P. aeruginosa LESB58 [2]; [6]) | MIC (P. aeruginosa LESB58 [2]; [7]) | FICI, drug combined with CAZ (P. aeruginosa LESB58 [3]) | MIC (P. aeruginosa PAO1; read-out: MIC in MHB) | MIC (P. aeruginosa PAO1; read-out: MIC in TCM) | Fold change TCM vs MHB (MIC) (P. aeruginosa LESB58 [2]) | Fold decrease in CAZ MIC, drug combined with CAZ (P. aeruginosa LESB58 [3]) | Fold decrease in CZA MIC, drug combined with CZA (P. aeruginosa LESB58 [3]) | Fold decrease in other MIC, drug combined with CAZ (P. aeruginosa LESB58 [3]) | Fold decrease in other MIC, drug combined with CZA (P. aeruginosa LESB58 [3]) | Fold change TCM vs MHB (MIC) (P. aeruginosa PAO1) | further results
1 | O=C(O)c1cn(C2CC2)c2cc(N3CCNCC3)c(F)cc2c1=O [CIP, ciprofloxacin] | 40 mg/mL | 3.13 µg/mL (≈ 9.45 µM) | 50 µg/mL | 0.5 | 0.156 µg/mL (≈ 0.471 µM) | 1.25 µg/mL (≈ 3.77 µM) |  |  |  |  |  |  | Ceftazidime-avibactam MIC in combination with the named drug (P. aeruginosa LESB58-lux): 4 µg/mL; FICI, drug combined with CAZ (P. aeruginosa LESB58-lux; LESB58-lux): 0.63; FICI, drug combined with CZA (P. aeruginosa LESB58-lux; LESB58-lux): 0.63; FICI, drug combined with CZA (P. aeruginosa LESB58 [3]): 0.5
2 | CNC(C)C1CCC(N)C(OC2C(N)CC(N)C(OC3OCC(C)(O)C(NC)C3O)C2O)O1 (stereo not drawn) [GEN, gentamicin] | 20 mg/mL | 25 µg/mL (≈ 52.3 µM) | 500 µg/mL | 0.25 | 1.56 µg/mL (≈ 3.27 µM) | 25 µg/mL (≈ 52.3 µM) | 20 | 8 | 8 | 8 | 8 | 16 | Toxic (visible skin irritation, inflammation, blood vessels, swelling) [1, 5]: 40 mg/mL
3 | Cn1c(N)c(NC(=O)NCCN)c[n+]1CC1=C(C(=O)O)N2C(=O)[C@@H](NC(=O)/C(=N\OC(C)(C)C(=O)[O-])c3nsc(N)n3)[C@H]2SC1 [Ceftolozane] | 50 mg/mL |  |  |  |  |  |  |  |  |  |  |  | 
4 | C[C@@H](O)[C@H]1C(=O)N2C(C(=O)O)=C(S[C@@H]3CN[C@H](C(=O)N(C)C)C3)[C@H](C)[C@H]12 [MEM] |  |  |  |  |  |  |  |  |  |  |  |  | Toxic (visible skin irritation, inflammation, blood vessels, swelling) [1, 5]: 20 mg/mL; Highest tolerated dose tested ([1]; mouse, in vivo, sc): 10 mg/mL
5 | C[C@H]1[C@H](NC(=O)/C(=N\OC(C)(C)C(=O)O)c2csc(N)n2)C(=O)N1S(=O)(=O)O [ATM, aztreonam] | 25 mg/mL | 62.5 µg/mL (≈ 144 µM) | 500 µg/mL | 0.75 | 12.5 µg/mL (≈ 28.7 µM) | 12.5 µg/mL (≈ 28.7 µM) | 8 | 2 | 2 | 4 | 4 | 1 | FICI, drug combined with CZA (P. aeruginosa LESB58 [3]): 0.75
6 | C[C@]1(Cn2ccnn2)[C@H](C(=O)O)N2C(=O)C[C@H]2S1(=O)=O [Tazobactam] |  |  |  |  |  |  |  |  |  |  |  |  | Highest tolerated dose tested ([1]; female, Swiss Webster, mouse, in vivo, sc, 1 day): 25 mg/mL
7 | NC[C@H]1O[C@H](O[C@H]2[C@H](O)[C@@H](O[C@H]3O[C@H](CO)[C@@H](O)[C@H](N)[C@H]3O)[C@H](N)C[C@@H]2N)[C@H](N)C[C@@H]1O [TOB, tobramycin] |  | 3.13 µg/mL (≈ 6.69 µM) | 62.5 µg/mL | 0.38 | 0.625 µg/mL (≈ 1.34 µM) | 25 µg/mL (≈ 53.5 µM) | 20 | 4 | 4 | 8 | 8 | 40 | Fold decrease in CAZ MIC, drug combined with CAZ (P. aeruginosa LESB58-lux; LESB58-lux): 8; Fold decrease in CZA MIC, drug combined with CZA (P. aeruginosa LESB58-lux; LESB58-lux): 2; Fold decrease in other MIC, drug combined with CAZ (P. aeruginosa LESB58-lux; LESB58-lux): 4; Fold decrease in other MIC, drug combined with CZA (P. aeruginosa LESB58-lux; LESB58-lux): 8; FICI, drug combined with CAZ (P. aeruginosa LESB58-lux; LESB58-lux): 0.38; FICI, drug combined with CZA (P. aeruginosa LESB58-lux; LESB58-lux): 0.63; FICI, drug combined with CAZ (P. aeruginosa LESB58-lux; LESB58-lux, listed as tobramycin): synergised; also recorded: retained; Area of dermoncecrosis, Mean (P. aeruginosa LESB58 [4]; tigecycline and tobramycin groups (shared vehicle, CAZ and CZA mice), female Swiss Webster mice, 50 μL s.c. 1 h after infection, day 3, CAZ or CZA 50, CST 1.25, TGC 2.5, TOB 2 mg/mL, vehicle 0.9% saline): 55.6 mm^2; Area of dermoncecrosis, % reduction (P. aeruginosa LESB58 [4]; [8]): 40.9%; CFU per abscess, Fold change (P. aeruginosa LESB58 [4]; [8]): -5.4; Area of dermoncecrosis, % reduction (P. aeruginosa LESB58 [4]; tigecycline and tobramycin groups, compared to the vehicle control, day 3, listed as tobramycin): 41%; CFU per abscess, Geometric mean (P. aeruginosa LESB58 [4]; tigecycline and tobramycin groups, day 3): 4.5 × 10^7 CFU per abscess; Fold reduction of bacterial load (CFU) relative to vehicle (P. aeruginosa LESB58 [4]; tigecycline, tobramycin experiments): ~5; FICI, drug combined with CAZ (P. aeruginosa LESB58 [3]; listed as tobramycin): < 0.4; FICI, drug combined with CZA (P. aeruginosa LESB58 [3]; listed as tobramycin): < 0.4

From article PMC11130353, “Using host-mimicking conditions and a murine cutaneous abscess model to identify synergistic antibiotic combinations effective against Pseudomonas aeruginosa” (Frontiers in Cellular and Infection Microbiology, 2024)
